# Measurements: patent US10463664B2, “Inhibitors of HSV nucleotidyl transferases and uses therefor” (Saint Louis University, priority 2013, dated 2019)
# What was measured:
# in vitro = conditions: human
# Method in brief: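 Primary HFF, 1.0×10^4/well, exposed 24 h to 0.78–100 μM compound in 1% DMSO. Viability read by MTT (0.25 mg/mL, 60 min, 570 nm) and by protease-release lysis luminescence. CC50 by non-linear fit of percent viability.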
# [1] = Neutral red cytotoxicity assay in uninfected HFFs (14 day, with CPE assay); type: cell-based, human; conditions: human, uninfected human foreskin fibroblasts (HFFs)
# Method: Anti-HCMV CPE inhibition and cytotoxicity assays. HFFs were infected with HCMV strain AD169 in the presence of serial dilutions of the compounds from 0.0192 to 60 μM. Fourteen days later the monolayers were stained with crystal violet, and retained cell density was quantified using a multiplate autoreader (BioTek). Cytotoxicity was measured the same way, except that the cells were uninfected and neutral red internalization by viable cells was measured.
# Antiviral efficacy against HCMV. The ability of select HSV inhibitors to inhibit replication of another major human herpesvirus pathogen, human cytomegalovirus (HCMV) (65) was tested. This was based on the inhibitors strong suppression of HSV-1 and HSV-2 and the prediction that other members of the herpesvirus family would be sensitive to NTS inhibitors due to their shared DNA replication mechanism. Compounds #41, 46, 49, 55, 56, and 59 and the FDA-approved anti-HCMV drug ganciclovir were evaluated with crystal violet CPE and neutral red toxicity assays in HFFs. HFFs were infected with HCMV in the presence of serial dilutions of the compounds that were most inhibitory for HSVs. After 14 days the monolayers were stained and cell density was determined by OD reading. Compound cytotoxicity for uninfected cells was determined in the same manner except that neutral red uptake by viable cells was measured. […] The TI values for the four NTS inhibitors of HCMV ranged from 4 for compound #41 to 38 for #56. Therefore, NTS inhibitors can suppress HCMV replication in addition to inhibiting the HSVs.
# [2] = Neutral red cytotoxicity assay in HFFs (10 day, with plaque reduction assay); type: cell-based, human; conditions: human, uninfected primary human foreskin fibroblasts (HFFs), 10 day assay
# Method: HCMV plaque reduction EC50 and toxicity assays. Low passage primary HFFs were infected with HCMV strain AD169 in the presence of serial dilutions of the compounds from 0.032 to 100 μM. Ten days later the monolayers were stained with 1% neutral red solution in PBS. After rinsing, plaques were counted using a stereomicroscope and the EC50 was interpolated from the data. Cytotoxicity was measured using a plate-based assay in which compounds were added to HFFs at 0.032 to 100 μM. At the end of the incubation period, plates were stained for 1 h with a neutral red solution in PBS. The stain was then removed, the plates rinsed in PBS and dried, and dye internalized by viable cells was determined at OD550. CC50 values were interpolated from the data.
# Compounds #41, 46, 49, 55, 56, and 59 and the FDA-approved, anti-HCMV drug ganciclovir were subsequently evaluated with plaque reduction and toxicity assays in HFFs. HFFs were infected with HCMV in the presence of serial dilutions of the compounds. After 10 days the cultures were stained with neutral red and plaques were counted. Compound cytotoxicity for uninfected cells was determined in the same manner except that neutral red uptake by viable cells was measured by optical density. […] The TI values for the five NTS inhibitors of HCMV ranged from 5 for compound #46 to 17 for #55 and 59. Therefore, NTS inhibitors can suppress HCMV replication in addition to inhibiting the HSVs.
# [3] = MTT mitochondrial toxicity assay in Vero cells; type: cell-based; conditions: African green monkey, Vero cells, read-out: Vero cell toxicity MTT CC50
# [4] = CytoTox-Glo cellular lysis assay in Vero cells; type: cell-based; conditions: African green monkey, Vero cells, read-out: Vero cell toxicity CTG CC50
# Method: Quantitative toxicity measurements were conducted for all compounds that suppressed HSV replication by approximately 2 login or more at 5 μM plus a number of compounds with lesser inhibitory activity for comparison. Toxicity was assessed by measuring release of intracellular proteases into the culture medium due to cellular lysis. […] Consistent with the subjective assessments of toxicity, all compounds selected for quantitative toxicity assessment had CC50 values ≥50 μM by both the MTT and cellular lysis assays (Table 1).
# HSV-2 = assay: Time-of-addition experiment, HSV-2 in Vero cells; type: cell-based, herpes simplex virus 2; conditions: 10 μM
# Method: The inventors next varied the time post-infection that the inhibitors were added to begin defining the stage(s) of viral replication targeted by the inhibitors. […] The cells were incubated until 24 hours post-infection and then infectious viral titers were determined by plaque assay and viral DNA production was determined by quantitative PCR (FIG. 5).
# human RNaseH1 = molecular target: T1, human RNaseH1 (Homo sapiens, UniProt O60930); conditions: Hu et al., 2013; cited from earlier work
# T1 construct: hexahistidine; made in house; host or cells: E. coli
# T1 sequence (O60930 1-286): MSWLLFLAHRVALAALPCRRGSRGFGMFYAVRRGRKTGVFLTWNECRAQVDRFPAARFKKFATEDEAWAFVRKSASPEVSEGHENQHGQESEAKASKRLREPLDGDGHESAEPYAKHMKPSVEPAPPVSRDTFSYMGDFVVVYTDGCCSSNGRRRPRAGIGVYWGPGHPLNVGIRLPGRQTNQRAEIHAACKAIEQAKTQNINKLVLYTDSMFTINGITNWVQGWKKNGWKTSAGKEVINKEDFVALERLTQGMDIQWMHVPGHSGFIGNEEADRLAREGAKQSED
# HSV-1 = assay: Pre-incubation of viral inoculum with compound (virus infectivity); type: cell-based, herpes simplex virus 1
# Method: Tests were carried out to determine if the early event inhibited by compound #46 was a pre- or post-entry event. A high titer HSV-1 stock was pre-incubated with compound #46 at 50 μM or was incubated with an equivalent amount of DMSO-containing medium for 1 hour at 37° C. Then the viral stocks with compound or DMSO were diluted such that Vero cells were infected at a moi of 0.1 as usual. […] A standard inhibition assay using compound #46 at 50 μM was conducted in parallel as a positive control, and viral titers were determined by plaque assay at 24 hours post-infection. The standard conditions of infection at 50 μM caused a 5.5 log10 suppression of HSV-1 replication relative to the DMSO pre-treatment sample.
SMILES,CC50 at 24 h (in vitro) [µM],CC50 at 14 days [1] [µM],CC50 at 10 days [2] [µM],CC50 at 24 h [3] [µM],CC50 at 24 h [4] [µM],Delay of addition with no effect on inhibition of DNA replication or viral accumulation (HSV-2) [hours post-infection],Time of addition at which compound becomes essentially ineffective (HSV-2) [hours post-infection],Effect on RNase H1 (in words) (human RNaseH1),"Suppression of HSV-1 replication, standard conditions of infection (HSV-1; 50 μM throughout, relative to DMSO pre-treatment sample) [log10]","Effect of pre-incubation on virions / virus entry (in words) (HSV-1; pre-incubation 50 μM, 1 hour, 37° C.)"
"Cc1cc(C2CCCCC2)n(O)c(=O)c1 [Compound 41, Ciclopirox, reference compound]",> 100,8.9,2.9,> 50,> 100,,,,,
"Nc1nc2c(ncn2COCCO)c(=O)[nH]1 [ACV, Acyclovir, reference compound]",> 100,,,> 100,> 100,≤ 5,12,,,
"CC(C)c1ccc(O)c(=O)c(O)c1 [Compound 46, Beta-thujaplicinol]",,,,,,,,no effect,5.5,not directly toxic to virions
